# In publication PMC8909834, “An Orally Bioavailable and Highly Efficacious Inhibitor of CDK9/FLT3 for the Treatment of Acute Myeloid Leukemia” (Cancers, 2022):
# Assays:
# Experiment in all cases: Kinase Hotspot radiolabel assay
# Format in all cases: biochemical
# Conditions in all cases: read-out: % Residual Activity
# [1] = target: T1, ALK5/TGFBR1 (Homo sapiens, UniProt P36897)
# T1 construct: purchased Reaction Biology Corporation (Kinase HotSpot)
# Procedure, shortened: (§1)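 Step one: screen at 1 µM across 369 kinases (Hotspot, radiolabel detection). Step two: Ki determination for kinases with >90% inhibition.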
# [2] = target: T2, CAMK1a (Homo sapiens, UniProt Q14012)
# T2 construct: purchased Reaction Biology Corporation (Kinase HotSpot)
# Procedure, shortened: as §1
# [3] = target: T3, CAMK2a (Homo sapiens, UniProt Q9UQM7)
# T3 construct: purchased Reaction Biology Corporation (Kinase HotSpot)
# Procedure, shortened: as §1
# [4] = target: T4, CDK2/cyclin A (Homo sapiens, UniProt P24941)
# T4 construct: purchased Reaction Biology Corporation (Kinase HotSpot)
# Procedure, shortened: as §1
# [5] = target: T5, CDK5/p25 (Homo sapiens, UniProt Q00535)
# T5 construct: purchased Reaction Biology Corporation (Kinase HotSpot)
# Procedure, shortened: as §1
# [6] = target: T6, CDK9/cyclin K (Homo sapiens, UniProt P50750)
# T6 construct: purchased Reaction Biology Corporation (Kinase HotSpot)
# Procedure, shortened: as §1
# [7] = target: T7, CK1g3 (Homo sapiens, UniProt Q9Y6M4)
# T7 construct: purchased Reaction Biology Corporation (Kinase HotSpot)
# T7 sequence (Q9Y6M4 whole entry): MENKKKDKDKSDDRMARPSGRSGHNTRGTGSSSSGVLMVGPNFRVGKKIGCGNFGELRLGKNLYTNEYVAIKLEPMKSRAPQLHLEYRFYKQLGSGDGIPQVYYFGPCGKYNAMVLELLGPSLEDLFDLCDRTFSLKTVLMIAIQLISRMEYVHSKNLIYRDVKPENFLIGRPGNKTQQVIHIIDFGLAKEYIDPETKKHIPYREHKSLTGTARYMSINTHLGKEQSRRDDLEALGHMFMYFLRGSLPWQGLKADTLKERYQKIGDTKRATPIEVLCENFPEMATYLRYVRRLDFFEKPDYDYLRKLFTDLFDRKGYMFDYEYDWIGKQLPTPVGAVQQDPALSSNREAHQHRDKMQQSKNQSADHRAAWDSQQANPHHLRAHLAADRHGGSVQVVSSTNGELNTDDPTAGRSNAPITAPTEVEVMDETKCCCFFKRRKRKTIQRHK
# Procedure, shortened: as §1
# [8] = target: T8, DAPK2 (Homo sapiens, UniProt Q9UIK4)
# T8 construct: purchased Reaction Biology Corporation (Kinase HotSpot)
# Procedure, shortened: as §1
# [9] = target: T9, DMPK2 (Homo sapiens, UniProt Q6DT37)
# T9 construct: purchased Reaction Biology Corporation (Kinase HotSpot)
# T9 sequence (Q6DT37 whole entry): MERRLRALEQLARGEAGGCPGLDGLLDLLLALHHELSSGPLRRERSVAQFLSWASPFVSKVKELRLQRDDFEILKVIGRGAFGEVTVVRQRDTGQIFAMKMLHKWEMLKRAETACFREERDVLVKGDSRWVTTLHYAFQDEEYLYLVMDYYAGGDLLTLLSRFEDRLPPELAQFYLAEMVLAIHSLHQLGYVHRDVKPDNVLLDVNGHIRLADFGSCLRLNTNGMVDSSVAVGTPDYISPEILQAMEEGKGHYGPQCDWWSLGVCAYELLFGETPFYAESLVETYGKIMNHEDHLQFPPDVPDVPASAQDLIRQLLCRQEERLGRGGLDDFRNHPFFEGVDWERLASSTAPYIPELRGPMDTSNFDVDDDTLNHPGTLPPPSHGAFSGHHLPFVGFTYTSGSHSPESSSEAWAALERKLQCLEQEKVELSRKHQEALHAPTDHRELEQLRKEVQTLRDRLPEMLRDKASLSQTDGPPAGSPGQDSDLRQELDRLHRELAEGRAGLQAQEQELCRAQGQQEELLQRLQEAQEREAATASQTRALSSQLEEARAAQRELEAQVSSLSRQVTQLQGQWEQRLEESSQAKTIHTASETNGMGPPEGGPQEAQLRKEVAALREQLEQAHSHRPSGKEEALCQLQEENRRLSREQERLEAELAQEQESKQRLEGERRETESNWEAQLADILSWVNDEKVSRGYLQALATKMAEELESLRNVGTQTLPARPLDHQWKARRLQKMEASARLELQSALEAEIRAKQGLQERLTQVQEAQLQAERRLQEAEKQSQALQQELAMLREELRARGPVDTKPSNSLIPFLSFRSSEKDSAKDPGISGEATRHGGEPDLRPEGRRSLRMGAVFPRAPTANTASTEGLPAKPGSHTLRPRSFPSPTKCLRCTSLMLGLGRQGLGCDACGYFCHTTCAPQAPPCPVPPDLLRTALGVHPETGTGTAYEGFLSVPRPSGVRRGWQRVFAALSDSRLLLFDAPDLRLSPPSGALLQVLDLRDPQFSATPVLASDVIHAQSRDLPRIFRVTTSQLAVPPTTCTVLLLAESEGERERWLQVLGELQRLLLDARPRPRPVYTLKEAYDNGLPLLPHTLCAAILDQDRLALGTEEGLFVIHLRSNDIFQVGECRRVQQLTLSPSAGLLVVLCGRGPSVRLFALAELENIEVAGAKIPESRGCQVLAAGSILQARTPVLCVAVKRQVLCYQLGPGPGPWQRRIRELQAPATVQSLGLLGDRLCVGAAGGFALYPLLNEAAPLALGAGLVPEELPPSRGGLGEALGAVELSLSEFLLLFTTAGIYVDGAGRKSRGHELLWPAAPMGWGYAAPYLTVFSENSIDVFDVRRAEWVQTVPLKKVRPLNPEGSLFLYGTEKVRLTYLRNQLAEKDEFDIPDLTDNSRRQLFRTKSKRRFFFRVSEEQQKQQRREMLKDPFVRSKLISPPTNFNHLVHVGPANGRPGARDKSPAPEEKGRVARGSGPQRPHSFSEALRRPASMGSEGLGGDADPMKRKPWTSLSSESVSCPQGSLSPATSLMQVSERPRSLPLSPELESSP
# Procedure, shortened: as §1
# [10] = target: T10, DRAK1/STK17A (Homo sapiens, UniProt Q9UEE5)
# T10 construct: purchased Reaction Biology Corporation (Kinase HotSpot)
# Procedure, shortened: as §1
# [11] = target: T11, FES/FPS (Homo sapiens, UniProt P07332)
# T11 construct: purchased Reaction Biology Corporation (Kinase HotSpot)
# Procedure, shortened: as §1
# [12] = target: T12, FLT1/VEGFR1 (Homo sapiens, UniProt P17948)
# T12 construct: purchased Reaction Biology Corporation (Kinase HotSpot)
# Procedure, shortened: as §1
# [13] = target: T13, GLK/MAP4K3 (Homo sapiens, UniProt Q8IVH8)
# T13 construct: purchased Reaction Biology Corporation (Kinase HotSpot)
# Procedure, shortened: as §1
# [14] = target: T14, MEKK2 (Homo sapiens, UniProt Q9Y2U5)
# T14 construct: purchased Reaction Biology Corporation (Kinase HotSpot)
# Procedure, shortened: as §1
# [15] = target: T15, MKK4 (Homo sapiens, UniProt P45985)
# T15 construct: purchased Reaction Biology Corporation (Kinase HotSpot)
# Procedure, shortened: as §1
# [16] = target: T16, MRCKb/CDC42BPB (Homo sapiens, UniProt Q9Y5S2)
# T16 construct: purchased Reaction Biology Corporation (Kinase HotSpot)
# Procedure, shortened: as §1
# [17] = target: T17, MYO3b (Homo sapiens, UniProt Q8WXR4)
# T17 construct: purchased Reaction Biology Corporation (Kinase HotSpot)
# Procedure, shortened: as §1
# [18] = target: T18, P38b/MAPK11 (Homo sapiens, UniProt Q15759)
# T18 construct: purchased Reaction Biology Corporation (Kinase HotSpot)
# Procedure, shortened: as §1
# [19] = target: T19, P38g (Homo sapiens, UniProt P53778)
# T19 construct: purchased Reaction Biology Corporation (Kinase HotSpot)
# Procedure, shortened: as §1
# [20] = target: T20, PHKg1 (Homo sapiens, UniProt Q16816)
# T20 construct: purchased Reaction Biology Corporation (Kinase HotSpot)
# Procedure, shortened: as §1
# [21] = target: T21, PKCb2 (Homo sapiens, UniProt P05771)
# T21 construct: purchased Reaction Biology Corporation (Kinase HotSpot)
# T21 sequence (P05771 1-673 isoform P05771-2): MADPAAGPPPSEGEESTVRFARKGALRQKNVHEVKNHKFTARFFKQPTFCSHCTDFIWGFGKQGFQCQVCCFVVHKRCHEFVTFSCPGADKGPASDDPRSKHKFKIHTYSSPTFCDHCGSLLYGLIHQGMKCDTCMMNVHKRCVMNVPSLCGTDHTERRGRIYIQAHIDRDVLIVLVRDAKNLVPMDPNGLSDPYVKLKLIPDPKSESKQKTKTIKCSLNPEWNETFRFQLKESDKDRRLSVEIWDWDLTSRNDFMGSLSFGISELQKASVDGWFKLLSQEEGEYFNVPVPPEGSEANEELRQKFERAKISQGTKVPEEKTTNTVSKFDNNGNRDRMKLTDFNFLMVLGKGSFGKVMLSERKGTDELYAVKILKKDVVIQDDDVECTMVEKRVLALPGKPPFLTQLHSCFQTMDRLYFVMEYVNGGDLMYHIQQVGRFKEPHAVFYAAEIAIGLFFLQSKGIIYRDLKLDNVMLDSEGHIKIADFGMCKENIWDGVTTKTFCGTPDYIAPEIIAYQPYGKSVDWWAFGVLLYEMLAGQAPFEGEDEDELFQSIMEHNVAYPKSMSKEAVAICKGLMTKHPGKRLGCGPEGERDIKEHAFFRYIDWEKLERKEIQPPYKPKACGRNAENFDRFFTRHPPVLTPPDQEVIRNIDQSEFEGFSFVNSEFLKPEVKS
# Procedure, shortened: as §1
# [22] = target: T22, PKCmu/PRKD1 (Homo sapiens, UniProt Q15139)
# T22 construct: purchased Reaction Biology Corporation (Kinase HotSpot)
# Procedure, shortened: as §1
# [23] = target: T23, PKCnu/PRKD3 (Homo sapiens, UniProt O94806)
# T23 construct: purchased Reaction Biology Corporation (Kinase HotSpot)
# T23 sequence (O94806 whole entry): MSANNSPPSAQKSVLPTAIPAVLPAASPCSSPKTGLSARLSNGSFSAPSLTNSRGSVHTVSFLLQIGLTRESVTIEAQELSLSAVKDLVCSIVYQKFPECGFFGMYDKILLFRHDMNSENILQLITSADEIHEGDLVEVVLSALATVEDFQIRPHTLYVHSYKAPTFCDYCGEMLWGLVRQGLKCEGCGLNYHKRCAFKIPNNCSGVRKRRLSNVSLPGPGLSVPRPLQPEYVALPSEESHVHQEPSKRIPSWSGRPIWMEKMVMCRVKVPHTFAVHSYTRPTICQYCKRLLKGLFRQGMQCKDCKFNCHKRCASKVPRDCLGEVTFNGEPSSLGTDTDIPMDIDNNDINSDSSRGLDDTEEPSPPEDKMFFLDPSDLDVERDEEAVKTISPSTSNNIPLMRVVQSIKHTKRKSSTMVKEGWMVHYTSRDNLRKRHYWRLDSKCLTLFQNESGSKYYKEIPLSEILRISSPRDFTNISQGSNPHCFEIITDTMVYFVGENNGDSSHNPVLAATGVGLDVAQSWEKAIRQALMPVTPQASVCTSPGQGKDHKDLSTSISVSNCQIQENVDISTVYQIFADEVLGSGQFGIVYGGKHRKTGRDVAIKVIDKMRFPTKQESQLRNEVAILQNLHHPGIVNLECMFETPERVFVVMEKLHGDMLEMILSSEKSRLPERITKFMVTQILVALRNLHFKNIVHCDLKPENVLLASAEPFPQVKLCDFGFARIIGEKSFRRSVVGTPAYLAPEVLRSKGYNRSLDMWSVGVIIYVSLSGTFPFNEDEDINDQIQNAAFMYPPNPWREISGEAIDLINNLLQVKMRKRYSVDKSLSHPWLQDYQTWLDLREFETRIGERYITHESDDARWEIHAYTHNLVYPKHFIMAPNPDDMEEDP
# Procedure, shortened: as §1
# [24] = target: T24, RSK2 (Homo sapiens, UniProt P51812)
# T24 construct: purchased Reaction Biology Corporation (Kinase HotSpot)
# Procedure, shortened: as §1
# [25] = target: T25, STK21/CIT (Homo sapiens, UniProt O14578)
# T25 construct: purchased Reaction Biology Corporation (Kinase HotSpot)
# Procedure, shortened: as §1
# [26] = target: T26, TAK1 (Homo sapiens, UniProt O43318)
# T26 construct: purchased Reaction Biology Corporation (Kinase HotSpot)
# Procedure, shortened: as §1
# [27] = target: T27, TYK1/LTK (Homo sapiens, UniProt P29376)
# T27 construct: purchased Reaction Biology Corporation (Kinase HotSpot)
# T27 sequence (P29376 17-864): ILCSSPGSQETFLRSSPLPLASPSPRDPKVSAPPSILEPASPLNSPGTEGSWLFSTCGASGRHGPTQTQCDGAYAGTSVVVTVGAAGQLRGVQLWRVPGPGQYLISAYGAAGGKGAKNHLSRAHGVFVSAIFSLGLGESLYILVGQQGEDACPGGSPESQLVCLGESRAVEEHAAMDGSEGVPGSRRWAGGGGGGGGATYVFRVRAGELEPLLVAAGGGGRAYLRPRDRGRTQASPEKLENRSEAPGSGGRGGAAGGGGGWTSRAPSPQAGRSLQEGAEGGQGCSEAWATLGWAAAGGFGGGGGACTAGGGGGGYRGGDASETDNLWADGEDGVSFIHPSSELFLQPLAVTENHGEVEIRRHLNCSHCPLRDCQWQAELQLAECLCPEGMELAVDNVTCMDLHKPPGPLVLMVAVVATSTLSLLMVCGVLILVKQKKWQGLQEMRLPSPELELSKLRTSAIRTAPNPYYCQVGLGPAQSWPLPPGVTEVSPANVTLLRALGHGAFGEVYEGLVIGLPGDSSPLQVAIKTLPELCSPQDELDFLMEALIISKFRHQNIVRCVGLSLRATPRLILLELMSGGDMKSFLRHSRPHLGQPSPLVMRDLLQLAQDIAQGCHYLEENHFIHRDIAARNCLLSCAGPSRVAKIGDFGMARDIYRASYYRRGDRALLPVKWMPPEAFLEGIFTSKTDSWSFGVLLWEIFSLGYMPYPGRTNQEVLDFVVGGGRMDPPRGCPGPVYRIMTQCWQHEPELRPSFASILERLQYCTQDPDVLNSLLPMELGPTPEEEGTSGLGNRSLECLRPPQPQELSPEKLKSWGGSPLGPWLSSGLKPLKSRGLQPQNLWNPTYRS
# Procedure, shortened: as §1
# [28] = target: T28, VRK1 (Homo sapiens, UniProt Q99986)
# T28 construct: purchased Reaction Biology Corporation (Kinase HotSpot)
# Procedure, shortened: as §1
# [29] = target: T29, YES/YES1 (Homo sapiens, UniProt P07947)
# T29 construct: purchased Reaction Biology Corporation (Kinase HotSpot)
# T29 sequence (P07947 whole entry): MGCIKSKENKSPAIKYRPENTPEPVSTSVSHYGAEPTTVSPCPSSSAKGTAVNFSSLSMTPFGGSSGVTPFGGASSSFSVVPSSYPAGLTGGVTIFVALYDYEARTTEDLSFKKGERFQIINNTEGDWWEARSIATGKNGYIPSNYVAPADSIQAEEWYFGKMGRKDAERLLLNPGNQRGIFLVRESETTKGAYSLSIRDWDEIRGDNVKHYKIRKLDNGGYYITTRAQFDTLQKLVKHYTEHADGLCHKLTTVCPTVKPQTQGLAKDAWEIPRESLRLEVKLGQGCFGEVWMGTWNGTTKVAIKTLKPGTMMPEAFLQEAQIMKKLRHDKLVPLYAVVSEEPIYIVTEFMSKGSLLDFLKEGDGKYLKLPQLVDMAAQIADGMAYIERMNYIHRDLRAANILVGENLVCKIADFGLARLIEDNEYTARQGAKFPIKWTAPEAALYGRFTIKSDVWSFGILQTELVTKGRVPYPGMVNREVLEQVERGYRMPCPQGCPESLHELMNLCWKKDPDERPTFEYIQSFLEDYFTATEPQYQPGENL
# Procedure, shortened: as §1
compound,measurement,setting,value
Cc1cnc(N[C@H]2CC[C@H](N)CC2)nc1-c1cnc2ccc(-c3ccccc3)cn12 [CDDD11-8],remaining activity at 1 µM,[1],93.9%
same,remaining activity at 1 µM,[2],80.7%
same,remaining activity at 1 µM,[3],20.3%
same,remaining activity at 1 µM,[4],55%
same,remaining activity at 1 µM,[5],77.8%
same,remaining activity at 1 µM,[6],6.4%
same,remaining activity at 1 µM,[7],63.2%
same,remaining activity at 1 µM,[8],81.2%
same,remaining activity at 1 µM,[9],26.3%
same,remaining activity at 1 µM,[10],92.5%
same,remaining activity at 1 µM,[11],86.2%
same,remaining activity at 1 µM,[12],53.4%
same,remaining activity at 1 µM,[13],9.75%
same,remaining activity at 1 µM,[14],105%
same,remaining activity at 1 µM,[15],75.6%
same,remaining activity at 1 µM,[16],79.3%
same,remaining activity at 1 µM,[17],58.4%
same,remaining activity at 1 µM,[18],98.4%
same,remaining activity at 1 µM,[19],100%
same,remaining activity at 1 µM,[20],59.2%
same,remaining activity at 1 µM,[21],121%
same,remaining activity at 1 µM,[22],53.1%
same,remaining activity at 1 µM,[23],35.1%
same,remaining activity at 1 µM,[24],71%
same,remaining activity at 1 µM,[25],85.9%
same,remaining activity at 1 µM,[26],77.8%
same,remaining activity at 1 µM,[27],90.8%
same,remaining activity at 1 µM,[28],42.4%
same,remaining activity at 1 µM,[29],70%
